Values belong to the compound of their own block, whether it stands above or below them.
How the values were obtained:
Experiment in all cases: competitive isoTOP-ABPP
Assay type in all cases: binding
[1] = target: T1, FECH Ferrochelatase, mitochondrial (Homo sapiens, UniProt P22830); conditions: for isoTOP-ABPP ratio, lysine P22830_K304: 50 uM_231_sol_in vitro; for isoTOP-ABPP ratio (R) at liganded lysine P22830_K304: sol, 231
T1 construct: isoTOP-ABPP experiments performed in cell lysates (in vitro); endogenous in cells; host or cells: soluble proteome of human cancer cell lines (MDA-MB-231; Ramos and Jurkat also prepared)
T1 sequence (P22830 55-423): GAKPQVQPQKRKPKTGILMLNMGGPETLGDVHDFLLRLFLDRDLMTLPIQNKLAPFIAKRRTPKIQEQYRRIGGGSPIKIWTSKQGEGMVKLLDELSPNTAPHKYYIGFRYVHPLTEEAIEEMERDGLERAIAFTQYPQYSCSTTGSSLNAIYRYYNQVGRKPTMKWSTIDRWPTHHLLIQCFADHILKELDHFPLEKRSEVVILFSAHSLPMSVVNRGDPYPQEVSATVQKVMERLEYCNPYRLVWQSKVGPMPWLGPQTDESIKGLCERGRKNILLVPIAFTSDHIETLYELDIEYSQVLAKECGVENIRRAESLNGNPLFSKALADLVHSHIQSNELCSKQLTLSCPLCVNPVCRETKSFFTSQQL
Summary of the method: (§1)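 Readout: isotopic light/heavy MS1 peak-area ratio (R, DMSO heavy over compound light), median across peptides sharing a modified lysine. Lysate received fragment (activated esters 50 μM, guanidinylating agents 100 μM final) or DMSO, then 0.1 mM STP-alkyne probe for 1 h at ambient temperature.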

[2] = target: T2, GTPBP3 tRNA modification GTPase GTPBP3, mitochondrial (Homo sapiens, UniProt Q969Y2); conditions: for isoTOP-ABPP ratio, lysine Q969Y2_K492: 50 uM_231_sol_in vitro; for isoTOP-ABPP ratio (R) at liganded lysine Q969Y2_K492 / isoTOP-ABPP reactivity ratio at lysine Q969Y2_K492: 50 uM, in vitro; for isoTOP-ABPP ratio (R) at liganded lysine Q969Y2_K492: sol, 231; for isoTOP-ABPP reactivity ratio at lysine Q969Y2_K492: 231 sol
T2 construct: isoTOP-ABPP experiments performed in cell lysates (in vitro); endogenous in cells; host or cells: soluble proteome of human cancer cell lines (MDA-MB-231; Ramos and Jurkat also prepared)
T2 sequence (Q969Y2 21-492): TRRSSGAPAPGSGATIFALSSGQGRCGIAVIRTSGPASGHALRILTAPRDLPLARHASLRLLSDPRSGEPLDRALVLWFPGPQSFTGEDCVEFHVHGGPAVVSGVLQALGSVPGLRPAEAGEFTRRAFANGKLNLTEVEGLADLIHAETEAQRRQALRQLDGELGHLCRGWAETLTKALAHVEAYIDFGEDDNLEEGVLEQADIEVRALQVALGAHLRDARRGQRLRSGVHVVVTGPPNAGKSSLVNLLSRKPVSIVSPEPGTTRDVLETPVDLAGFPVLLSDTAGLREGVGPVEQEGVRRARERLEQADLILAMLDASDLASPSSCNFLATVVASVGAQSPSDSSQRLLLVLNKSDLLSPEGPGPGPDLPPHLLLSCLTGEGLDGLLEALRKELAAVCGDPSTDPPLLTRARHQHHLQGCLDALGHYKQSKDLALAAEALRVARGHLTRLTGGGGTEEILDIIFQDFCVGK
Summary of the method: as §1

[3] = target: T3, NPEPPS Puromycin-sensitive aminopeptidase (Homo sapiens, UniProt P55786); conditions: for isoTOP-ABPP ratio, lysine P55786_K712: 50 uM_231_sol_in vitro; for isoTOP-ABPP ratio (R) at liganded lysine P55786_K712: sol, 231
T3 construct: isoTOP-ABPP experiments performed in cell lysates (in vitro); endogenous in cells; host or cells: soluble proteome of human cancer cell lines (MDA-MB-231, Ramos, Jurkat)
Summary of the method: as §1

[4] = target: T4, RPL10 60S ribosomal protein L10 (Homo sapiens, UniProt P27635); conditions: for isoTOP-ABPP ratio, lysine P27635_K121: 50 uM_231_sol_in vitro; for isoTOP-ABPP ratio (R) at liganded lysine P27635_K121: sol, 231
T4 construct: isoTOP-ABPP experiments performed in cell lysates (in vitro); endogenous in cells; host or cells: soluble proteome of human cancer cell lines (MDA-MB-231; Ramos and Jurkat also prepared)
Summary of the method: as §1

[5] = target: T5, HNRNPK Heterogeneous nuclear ribonucleoprotein K (Homo sapiens, UniProt P61978); conditions: for isoTOP-ABPP ratio (R) at liganded lysine P61978_K405: sol, 231
T5 construct: isoTOP-ABPP experiments performed in cell lysates (in vitro); endogenous in cells; host or cells: soluble proteome of human cancer cell lines (MDA-MB-231, Ramos, Jurkat)
Summary of the method: as §1

[6] = target: T6, RQCD1 Cell differentiation protein RCD1 homolog (Homo sapiens, UniProt Q92600); conditions: for isoTOP-ABPP ratio (R) at liganded lysine Q92600_K230: sol, 231; for isoTOP-ABPP ratio, lysine Q92600_K230: 50 uM_231_sol_in vitro
T6 construct: isoTOP-ABPP experiments performed in cell lysates (in vitro); endogenous in cells; host or cells: soluble proteome of human cancer cell lines (MDA-MB-231; Ramos and Jurkat also prepared)
Summary of the method: as §1

T3 sequence (P55786 whole entry): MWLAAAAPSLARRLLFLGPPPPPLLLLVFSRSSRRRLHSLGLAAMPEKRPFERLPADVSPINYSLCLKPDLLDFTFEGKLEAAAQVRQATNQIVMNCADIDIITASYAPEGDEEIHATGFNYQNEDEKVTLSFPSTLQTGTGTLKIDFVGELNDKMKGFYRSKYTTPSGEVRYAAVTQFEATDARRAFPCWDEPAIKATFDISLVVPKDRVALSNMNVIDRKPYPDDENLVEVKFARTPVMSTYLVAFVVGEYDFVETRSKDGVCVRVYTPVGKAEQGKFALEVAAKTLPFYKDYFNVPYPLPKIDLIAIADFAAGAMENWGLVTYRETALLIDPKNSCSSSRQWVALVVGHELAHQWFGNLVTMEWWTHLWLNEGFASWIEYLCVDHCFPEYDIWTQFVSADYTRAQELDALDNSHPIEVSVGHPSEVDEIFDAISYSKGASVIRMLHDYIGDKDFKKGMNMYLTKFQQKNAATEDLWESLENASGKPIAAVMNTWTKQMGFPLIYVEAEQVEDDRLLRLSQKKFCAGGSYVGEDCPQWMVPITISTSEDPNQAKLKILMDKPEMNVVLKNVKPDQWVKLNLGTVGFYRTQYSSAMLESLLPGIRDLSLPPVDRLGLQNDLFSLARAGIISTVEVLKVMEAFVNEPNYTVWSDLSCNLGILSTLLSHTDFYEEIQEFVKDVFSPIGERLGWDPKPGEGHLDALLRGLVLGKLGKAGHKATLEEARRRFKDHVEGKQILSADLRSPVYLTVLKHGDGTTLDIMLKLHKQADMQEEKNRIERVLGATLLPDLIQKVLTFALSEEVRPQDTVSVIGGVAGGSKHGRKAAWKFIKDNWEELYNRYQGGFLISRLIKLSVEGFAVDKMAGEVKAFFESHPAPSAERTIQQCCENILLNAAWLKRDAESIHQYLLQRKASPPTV
T6 sequence (Q92600 whole entry): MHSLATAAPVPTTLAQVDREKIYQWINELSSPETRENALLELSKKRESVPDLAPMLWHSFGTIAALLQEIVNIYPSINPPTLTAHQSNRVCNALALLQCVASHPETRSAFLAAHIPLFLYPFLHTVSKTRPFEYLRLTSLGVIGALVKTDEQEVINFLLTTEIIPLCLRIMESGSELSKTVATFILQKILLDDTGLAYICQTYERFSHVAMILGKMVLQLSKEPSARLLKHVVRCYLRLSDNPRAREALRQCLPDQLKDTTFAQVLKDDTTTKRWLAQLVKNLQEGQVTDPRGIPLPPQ

SMILES: O=C(Oc1ccc([N+](=O)[O-])cc1[N+](=O)[O-])C(c1ccccc1)(c1ccccc1)c1ccccc1 [fragment 42, 2,4-Dinitrophenyl 2,2,2-triphenylacetate]
isoTOP-ABPP ratio (R) at liganded lysine P22830_K304 ([1]; 50 uM, in vitro): 1.0
isoTOP-ABPP ratio (R) at liganded lysine Q969Y2_K492 [2]: 0.9
isoTOP-ABPP ratio (R) at liganded lysine P55786_K712 ([3]; 50 uM, in vitro): 0.9
isoTOP-ABPP ratio (R) at liganded lysine Q92600_K230 ([6]; 50 uM, in vitro): 0.8

SMILES: CC(C)(C)OC(=O)NCCCC(=O)Oc1ccc([N+](=O)[O-])cc1[N+](=O)[O-] [fragment 41, 2,4-Dinitrophenyl 4-((tert-butoxycarbonyl)amino)butanoate]
isoTOP-ABPP ratio (R) at liganded lysine P61978_K405 ([5]; 50 uM, in vitro): 1.0
isoTOP-ABPP ratio (R) at liganded lysine P55786_K712 ([3]; 50 uM, in vitro): 1.5
isoTOP-ABPP ratio (R) at liganded lysine P27635_K121 ([4]; 50 uM, in vitro): 0.8
isoTOP-ABPP ratio (R) at liganded lysine Q92600_K230 ([6]; 50 uM, in vitro): 2.6

SMILES: O=C(Oc1ccc([N+](=O)[O-])cc1[N+](=O)[O-])C1CCN(C(=O)OCc2ccccc2)CC1 [fragment 34, 1-Benzyl 4-(2,4-dinitrophenyl) piperidine-1,4-dicarboxylate]
isoTOP-ABPP ratio (R) at liganded lysine Q969Y2_K492 [2]: 1.6
isoTOP-ABPP ratio (R) at liganded lysine P61978_K405 ([5]; 50 uM, in vitro): 1.4
isoTOP-ABPP ratio (R) at liganded lysine P55786_K712 ([3]; 50 uM, in vitro): 11.0
isoTOP-ABPP ratio (R) at liganded lysine P27635_K121 ([4]; 50 uM, in vitro): 1.3
isoTOP-ABPP ratio (R) at liganded lysine Q92600_K230 ([6]; 50 uM, in vitro): 0.8

SMILES: Cn1cc(CC(=O)Oc2ccc([N+](=O)[O-])cc2[N+](=O)[O-])c2ccccc21 [fragment 32, 2,4-Dinitrophenyl 2-(1-methyl-1H-indol-3-yl)acetate]
isoTOP-ABPP reactivity ratio at lysine Q969Y2_K492 [2]: 1.8
isoTOP-ABPP reactivity ratio at lysine P61978_K405 ([5]; 50 uM, 231 sol, in vitro): 0.9
isoTOP-ABPP reactivity ratio at lysine P55786_K712 ([3]; 50 uM, 231 sol, in vitro): 1.4
isoTOP-ABPP reactivity ratio at lysine P27635_K121 ([4]; 50 uM, 231 sol, in vitro): 1.7
isoTOP-ABPP reactivity ratio at lysine Q92600_K230 ([6]; 50 uM, 231 sol, in vitro): 10.2

SMILES: O=C(CCc1coc2cc(F)ccc2c1=O)Oc1ccc([N+](=O)[O-])cc1[N+](=O)[O-] [fragment 36, 2,4-Dinitrophenyl 3-(7-fluoro-4-oxo-4H-chromen-3-yl)propanoate]
isoTOP-ABPP ratio (R) at liganded lysine P22830_K304 ([1]; 50 uM, in vitro): 2.0
isoTOP-ABPP ratio (R) at liganded lysine Q969Y2_K492 [2]: 2.9
isoTOP-ABPP ratio (R) at liganded lysine P55786_K712 ([3]; 50 uM, in vitro): 2.7
isoTOP-ABPP ratio (R) at liganded lysine P27635_K121 ([4]; 50 uM, in vitro): 0.5
isoTOP-ABPP ratio (R) at liganded lysine Q92600_K230 ([6]; 50 uM, in vitro): 2.5

More lines, now with the values ahead:

isoTOP-ABPP ratio, lysine P22830_K304 [1]: 1.1
isoTOP-ABPP ratio, lysine Q969Y2_K492 [2]: 1.4
isoTOP-ABPP ratio, lysine P55786_K712 [3]: 1.0
isoTOP-ABPP ratio, lysine P27635_K121 [4]: 0.8
SMILES: O=C(Oc1c(F)c(F)cc(F)c1F)c1cc(C(F)(F)F)cc(C(F)(F)F)c1 [fragment 48, 2,3,5,6-Tetrafluorophenyl 3,5-bis(trifluoromethyl)benzoate]

R value (DMSO/fragment) for probe 1 labeling ([1]; P22830_K304, 50 uM, 231 sol, in vitro): 1.8
R value (DMSO/fragment) for probe 1 labeling ([5]; P61978_K405, 50 uM, 231 sol, in vitro): 1.3
R value (DMSO/fragment) for probe 1 labeling ([3]; P55786_K712, 50 uM, 231 sol, in vitro): 1.0
R value (DMSO/fragment) for probe 1 labeling ([4]; P27635_K121, 50 uM, 231 sol, in vitro): 0.9
R value (DMSO/fragment) for probe 1 labeling ([6]; Q92600_K230, 50 uM, 231 sol, in vitro): 1.0
SMILES: O=C(CCc1cn(-c2ccccc2)nc1-c1ccccc1)Oc1c(F)c(F)c(F)c(F)c1F [fragment 19, Pentafluorophenyl 3-(1,3-diphenyl-1H-pyrazol-4-yl)propanoate]

isoTOP-ABPP ratio, lysine P22830_K304 [1]: 2.2
isoTOP-ABPP ratio, lysine Q969Y2_K492 [2]: 1.7
isoTOP-ABPP ratio, lysine P55786_K712 [3]: 1.0
isoTOP-ABPP ratio, lysine P27635_K121 [4]: 1.1
isoTOP-ABPP ratio, lysine Q92600_K230 [6]: 0.8
SMILES: O=C(Oc1c(F)c(F)c(C(F)(F)F)c(F)c1F)c1cc(C(F)(F)F)cc(C(F)(F)F)c1 [fragment 47, 2,3,5,6-Tetrafluoro-4-(trifluoromethyl)phenyl 3,5-bis(trifluoromethyl)benzoate]

isoTOP-ABPP ratio, lysine P22830_K304 [1]: 0.8
isoTOP-ABPP ratio, lysine P61978_K405 ([5]; 50 uM_231_sol_in vitro): 1.2
isoTOP-ABPP ratio, lysine P55786_K712 [3]: 1.0
isoTOP-ABPP ratio, lysine Q92600_K230 [6]: 0.9
SMILES: NC(=O)c1cc(C(F)(F)F)cc(C(F)(F)F)c1 [fragment 51, reference compound]

isoTOP-ABPP reactivity ratio at lysine P22830_K304 ([1]; 50 uM, 231 sol, in vitro): 1.5
isoTOP-ABPP reactivity ratio at lysine Q969Y2_K492 [2]: 1.6
isoTOP-ABPP reactivity ratio at lysine P61978_K405 ([5]; 50 uM, 231 sol, in vitro): 1.0
isoTOP-ABPP reactivity ratio at lysine P55786_K712 ([3]; 50 uM, 231 sol, in vitro): 1.2
SMILES: O=C(CN1C(=O)c2ccccc2C1=O)Oc1c(F)c(F)c(F)c(F)c1F [fragment 27, Pentafluorophenyl 2-(1,3-dioxoisoindolin-2-yl)acetate]
